Measurements: patent publication US7396837B2, “Antitumoral analogs of lamellarins” (Pharma Mar, S.A.U., priority 2002, dated 2008)

Assays:
Type in all cases: cell-based
K-562 = assay: SRB colorimetric cell growth inhibition assay, K-562
Description: (§1) The finality of these assays is to interrupt the growth of an “in vitro” tumor cell culture by means a continued exhibition of the cells to the sample to be testing.
(§2) A colorimetric type of assay, using sulforhodamine B (SRB) reaction has been adapted for a quantitative measurement of cell growth and viability (following the technique described by P. A. Skehan, et al., J. Natl. Cancer Inst. 1990, 82, 1107-1112).
(§3) This form of assay employs 96 well cell culture microplates of 9 mm diameter (T. Mosmann et al., J. of Immunological Methods 1983, 65, 55-63; G. T. Faircloth et al., J. of Tissue and Culture Methods 1988, 11, 201-205).
(§4) Most of the cell lines are obtained from American Type Culture Collection (ATCC) derived from different human cancer types.
(§5) The values for mean +/− SD of data from triplicate wells are calculated. Some parameters for cellular responses can be calculated: GI=growth inhibition, TGI=total growth inhibition (cytostatic effect) and LC=cell killing (cytotoxic effect).

A-549 = assay: SRB colorimetric cell growth inhibition assay, A-549
Summary of the method: (§6)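 Cancer cells grown in vitro were continuously treated with compound. Cell mass was then determined by SRB staining and expressed as growth inhibition.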

SK-MEL-28 = assay: SRB colorimetric cell growth inhibition assay, SK-MEL-28
Summary of the method: as §6

HT-29 = assay: SRB colorimetric cell growth inhibition assay, HT-29
Summary of the method: as §6

LoVo = assay: SRB colorimetric cell growth inhibition assay, LoVo
Summary of the method: as §6

LoVo-Dox = assay: SRB colorimetric cell growth inhibition assay, LoVo-Dox (MDR)
Summary of the method: as §6

DU-145 = assay: SRB colorimetric cell growth inhibition assay, DU-145
Summary of the method: as §6

LNCaP = assay: SRB colorimetric cell growth inhibition assay, LNCaP
Description: as §1, §2, §3, §4, §5

SK-BR-3 = assay: SRB colorimetric cell growth inhibition assay, SK-BR-3
Summary of the method: as §6

IGROV = assay: SRB colorimetric cell growth inhibition assay, IGROV
Summary of the method: as §6

IGROV-ET = assay: SRB colorimetric cell growth inhibition assay, IGROV-ET (ET-743 resistant)
Summary of the method: as §6

HeLa = assay: SRB colorimetric cell growth inhibition assay, HeLa; conditions: Homo sapiens, HeLa
Summary of the method: as §6

HeLa-APL = assay: SRB colorimetric cell growth inhibition assay, HeLa-APL (aplidine resistant); conditions: Homo sapiens
Summary of the method: as §6

PANC-1 = assay: SRB colorimetric cell growth inhibition assay, PANC-1
Summary of the method: as §6

COc1cc(-c2c3c4cc(OC)c(OC(=O)[C@@H](N)C(C)C)cc4oc(=O)c3n3ccc4c(OC(=O)[C@@H](N)C(C)C)c(OC)c(OC)cc4c23)ccc1OC(=O)[C@@H](N)C(C)C [Compound 190]
IC (TGI) (K-562; Homo sapiens, K562, K-562, total growth inhibition (cytostatic effect), read-out: TGI K-562): 7120 nM | CC50 (K-562; Homo sapiens, K562, read-out: LC50 K-562, K-562, cell killing (cytotoxic effect)): 10700 nM | GI50 (K-562; K-562, GI=growth inhibition, read-out: GI50 K-562): 71.8 nM | GI50 (A-549; A-549, GI=growth inhibition, read-out: GI50 A-549): 167 nM | IC (TGI) (A-549; Homo sapiens, A549, A-549, total growth inhibition (cytostatic effect), read-out: TGI A-549): 1660 nM | CC50 (A-549; Homo sapiens, A549, read-out: LC50 A-549, A-549, cell killing (cytotoxic effect)): 10700 nM | IC (TGI) (SK-MEL-28; Homo sapiens, SK-MEL-28, MEL-28, total growth inhibition (cytostatic effect), read-out: TGI MEL-28): 10700 nM | GI50 (SK-MEL-28; MEL-28, GI=growth inhibition, read-out: GI50 MEL-28): 9150 nM | CC50 (SK-MEL-28; human): 10700 nM | GI50 (HT-29; HT-29, GI=growth inhibition, read-out: GI50 HT-29): 2990 nM | CC50 (HT-29; Homo sapiens, HT-29, read-out: LC50 HT-29, HT-29, cell killing (cytotoxic effect)): 10700 nM | IC (TGI) (HT-29; Homo sapiens, HT-29, total growth inhibition (cytostatic effect), read-out: TGI HT-29): 10700 nM | CC50 (LoVo; Homo sapiens, LoVo, read-out: LC50 LOVO, LOVO, cell killing (cytotoxic effect)): 5460 nM | IC (TGI) (LoVo; Homo sapiens, LoVo, total growth inhibition (cytostatic effect), read-out: TGI LOVO): 1200 nM | GI50 (LoVo; LOVO, GI=growth inhibition, read-out: GI50 LOVO): 285 nM | IC (TGI) (LoVo-Dox; Homo sapiens, LOVO-DOX, total growth inhibition (cytostatic effect), read-out: TGI LOVO-DOX): 1370 nM | CC50 (LoVo-Dox; Homo sapiens, read-out: LC50 LOVO-DOX, LOVO-DOX, cell killing (cytotoxic effect)): 7680 nM | GI50 (LoVo-Dox; LOVO-DOX, GI=growth inhibition, read-out: GI50 LOVO-DOX): 310 nM | GI50 (DU-145; DU-145, GI=growth inhibition, read-out: GI50 DU-145): 57.5 nM | TGI DU-145 (DU-145; DU-145, total growth inhibition (cytostatic effect)): 2.63E−07 Molar | CC50 (DU-145; human): 10700 nM | GI50 (LNCaP; LN-caP, GI=growth inhibition, read-out: GI50 LN-caP): 48.6 nM | TGI LN-caP (LNCaP; LN-caP, total growth inhibition (cytostatic effect)): 2.97E−07 Molar | CC50 (LNCaP; human): 1970 nM | GI50 (SK-BR-3; SK-BR-3, GI=growth inhibition, read-out: GI50 SK-BR-3): 92.2 nM | TGI SK-BR-3 (SK-BR-3; SK-BR-3, total growth inhibition (cytostatic effect)): 3.83E−07 Molar | CC50 (SK-BR-3; human): 2630 nM | GI50 (IGROV; IGROV, GI=growth inhibition, read-out: GI50 IGROV): 134 nM | TGI IGROV (IGROV; IGROV, total growth inhibition (cytostatic effect)): 8.95E−07 Molar | CC50 (IGROV; human): 8320 nM | GI50 (IGROV-ET; IGROV-ET, GI=growth inhibition, read-out: GI50 IGROV-ET): 102 nM | TGI IGROV-ET (IGROV-ET; IGROV-ET, total growth inhibition (cytostatic effect)): 1.20E−06 Molar | CC50 (IGROV-ET; human): 6420 nM | CC50 (HeLa; read-out: LC50 HELA, HELA, cell killing (cytotoxic effect)): 3930 nM | IC (TGI) (HeLa; read-out: TGI HELA): 1310 nM | GI50 (HeLa; GI=growth inhibition, read-out: GI50 HELA): 83.3 nM | GI50 (HeLa-APL; read-out: GI50 HELA-APL): 89.9 nM | CC50 (HeLa-APL; read-out: LC50 HELA-APL, HELA-APL, cell killing (cytotoxic effect)): 5200 nM | IC (TGI) (HeLa-APL; read-out: TGI HELA-APL): 1720 nM | IC (TGI) (PANC-1; Homo sapiens, PANC-1, PANC-1, total growth inhibition (cytostatic effect), read-out: TGI PANC-1): 3500 nM | CC50 (PANC-1; Homo sapiens, PANC-1, read-out: LC50 PANC-1, PANC-1, cell killing (cytotoxic effect)): 10700 nM | GI50 (PANC-1; PANC-1, GI=growth inhibition, read-out: GI50 PANC-1): 376 nM
